Reference: patent publication US20070197512A1, “Carboxylic Acid Compounds and Use Thereof” (Japan Tobacco Inc., priority 2006, published 2007)

The molecules below were run against T1, human URAT1 (Homo sapiens, UniProt Q96S37) (assay: Uric acid transport inhibitory test using human URAT1-expressing cells). Conditions: human URAT1-expressing HEK293 cells, 14C-uric acid 50 μM, uptake 5 min, room temperature; read-out: hURAT1 IC50.
T1 construct: Human URAT1 full length cDNA was subcloned to expression vector pcDNA3.1; expressed in transfected cells; host or cells: HEK293 cells (pcDNA3.1, geneticin-selected)
T1 sequence (Q96S37 1-553): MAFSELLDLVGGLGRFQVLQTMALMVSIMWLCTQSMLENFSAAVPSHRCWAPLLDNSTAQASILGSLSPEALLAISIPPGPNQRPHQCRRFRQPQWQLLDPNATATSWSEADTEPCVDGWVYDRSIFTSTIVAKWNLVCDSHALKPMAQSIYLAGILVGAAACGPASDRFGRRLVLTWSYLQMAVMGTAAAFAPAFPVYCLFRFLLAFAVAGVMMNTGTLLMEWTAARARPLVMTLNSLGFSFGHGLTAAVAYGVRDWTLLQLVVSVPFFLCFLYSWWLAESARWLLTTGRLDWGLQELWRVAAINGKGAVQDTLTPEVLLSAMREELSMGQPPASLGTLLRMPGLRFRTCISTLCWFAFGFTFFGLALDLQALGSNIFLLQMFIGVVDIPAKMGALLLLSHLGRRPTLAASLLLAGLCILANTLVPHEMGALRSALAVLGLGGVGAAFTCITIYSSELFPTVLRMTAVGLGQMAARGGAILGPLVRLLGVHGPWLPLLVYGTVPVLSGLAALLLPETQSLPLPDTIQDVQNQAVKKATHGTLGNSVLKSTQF
Format: cell-based
Excerpt: Experimental Example 1 Uric Acid Transport Inhibitory Test Using Human URAT1-Expressing Cells
Human URAT1 full length cDNA was subcloned to expression vector pcDNA3.1 and human URAT1 gene was transfected into human embryonic kidney derived cell line (HEK293 cells) by liposome method using Lipofectamine2000. Simultaneously, HEK293 cells transfected with expression vector pcDNA3.1 alone (hereinafter mock cells) were also produced. HEK293 cells expressing human URAT1 gene or mock cells were selected with geneticin resistance as an index. The functional expression of human URAT1 gene was confirmed by a method similar to the following method, using ^14C-uric acid transport into the cells as an index.
Human URAT1-expressing HEK293 cells or mock cells were cultured in Dulbecco's modified Eagle's MEM medium (high glucose) containing 10% fetal bovine serum, 0.5 mg/mL geneticin sulfate, 100 units/mL penicillin and 100 μg/mL streptomycin under the conditions of 37° C. and 5% CO2 in an incubator. The cells were plated in a 96 well plate (poly-D-Lysine coated) at 1×10^5 cells/well and the following uric acid transport inhibitory test was performed 24 hr later. This test was performed at room temperature.
After the medium was removed by aspiration from each well, the cells were washed once with Hank's Balanced Salt Solution (HBSS) and preincubated with HBSS (100 μL/well) for 5 min. HBSS was aspirated and an assay buffer (wherein NaCl in the above-mentioned HBSS had been substituted with Na-gluconate) containing various concentrations of the Example compound and a radioactive ligand (14C-uric acid; final concentration 50 μM) was added to each well at 50 μL/well and an uptake reaction was carried out for 5 min. After the reaction, the cells were washed twice with ice-cold HBSS (150 μL/well), and Microscinti™ 20 (PerkinElmer) was added at 50 μL/well. The cells were lysed by stirring and the radioactivity of each well was measured by a liquid scintillation counter (TOP COUNT, Packard).
The uric acid transport rate (%) of the Example compound at each concentration was calculated relative to the radioactivity (difference in radioactivity between human URAT1-expressing HEK293 cells and mock cells without addition of Example compound (DMSO addition)) showing URAT1 specific uric acid transport as 100%, and the concentration (IC50) of the Example compound necessary for inhibiting the uric acid transport rate by 50% was determined. In Table 24-Table 27, “+++” means IC50 value of less than 300 nM, “++” means IC50 value of 300 nM to less than 3000 nM, and “+” means IC50 value of not less than 3000 nM.
An IC50 of at least 3 µM was found for CC(C)c1cccc2c1OC(C(C)C)C(=O)N2Cc1ccccc1C(=O)O (stereo not drawn) [Example 41, 2-[(2,8-diisopropyl-3-oxo-2,3-dihydrobenzo[1,4]oxazin-4-yl)methyl]benzoic acid] in this work. An IC50 of at least 3 µM was found for Cc1cc(C)c2c(c1)N(CCC(=O)O)C(=O)C(Cc1ccccc1)O2 (stereo not drawn) [Example 92, 3-(2-benzyl-6,8-dimethyl-3-oxo-2,3-dihydrobenzo[1,4]oxazin-4-yl)propionic acid] in this work. An IC50 of under 0.3 µM was found for Cc1cc(Cl)cc2c1OC(C(C)C)C(=O)N2CCC(=O)O (stereo not drawn) [Example 81, 3-(6-chloro-2-isopropyl-8-methyl-3-oxo-2,3-dihydrobenzo[1,4]oxazin-4-yl)propionic acid] in this work. An IC50 of 0.3 to 3 µM was found for CC(C)C1CN(C(=O)/C=C/C(=O)O)c2ccc(Cl)cc2O1 (stereo not drawn) [Example 68, (E)-4-(7-chloro-2-isopropyl-2,3-dihydrobenzo[1,4]oxazin-4-yl)-4-oxo-2-butenoic acid] in this work. An IC50 of at least 3 µM was found for CC(C)C1Sc2ccccc2N(CC(=O)O)C1=O (stereo not drawn) [Example 30, (2-isopropyl-3-oxo-2,3-dihydrobenzo[1,4]thiazin-4-yl)acetic acid] in this work. An IC50 of under 0.3 µM was found for Cc1cc(C)c2c(c1)N(CCC(=O)O)C(=O)C(C(C)C)O2 (stereo not drawn) [Example 61, 3-(2-isopropyl-6,8-dimethyl-3-oxo-2,3-dihydrobenzo[1,4]oxazin-4-yl)propionic acid] in this work. An IC50 of 0.3 to 3 µM was found for CC(C)C1Oc2ccc(C(C)(C)C)cc2N(CCC(=O)O)C1=O (stereo not drawn) [Example 88, 3-(6-tert-butyl-2-isopropyl-3-oxo-2,3-dihydrobenzo[1,4]oxazin-4-yl)propionic acid] in this work. An IC50 of at least 3 µM was found for O=C(O)CN1C(=O)CSc2ccccc21 [Example 4, (3-oxo-2,3-dihydrobenzo[1,4]thiazin-4-yl)acetic acid] in this work. An IC50 of at least 3 µM was found for CC1(C)Oc2ccccc2N(CC(=O)O)C1=S [Example 11, (2,2-dimethyl-3-thioxo-2,3-dihydrobenzo[1,4]oxazin-4-yl)acetic acid] in this work. An IC50 of 0.3 to 3 µM was found for CC(C)C1Oc2c(Br)cccc2N(CCC(=O)O)C1=O (stereo not drawn) [Example 51, 3-(8-bromo-2-isopropyl-3-oxo-2,3-dihydrobenzo[1,4]oxazin-4-yl)propionic acid] in this work. An IC50 of at least 3 µM was found for O=C(O)CN1C(=O)COc2ccccc21 [Example 3, (3-oxo-2,3-dihydrobenzo[1,4]oxazin-4-yl)acetic acid] in this work. An IC50 of at least 3 µM was found for O=C(O)/C=C/C(=O)N1CCOc2ccccc21 [Example 28, (E)-4-(2,3-dihydrobenzo[1,4]oxazin-4-yl)-4-oxo-2-butenoic acid] in this work. An IC50 of 0.3 to 3 µM was found for Cc1ccc2c(c1)N(CCC(=O)O)C(=O)C(c1ccccc1)O2 (stereo not drawn) [Example 75, 3-(6-methyl-3-oxo-2-phenyl-2,3-dihydrobenzo[1,4]oxazin-4-yl)propionic acid] in this work. An IC50 of at least 3 µM was found for O=C(O)CCN1C(=O)C(c2ccccc2)Oc2ccc(Cl)cc21 (stereo not drawn) [Example 77, 3-(6-chloro-3-oxo-2-phenyl-2,3-dihydrobenzo[1,4]oxazin-4-yl)propionic acid] in this work. An IC50 of 0.3 to 3 µM was found for CCC1CN(C(=O)/C=C/C(=O)O)c2cccc(C(C)C)c2O1 (stereo not drawn) [Example 67, (E)-4-(2-ethyl-8-isopropyl-2,3-dihydrobenzo[1,4]oxazin-4-yl)-4-oxo-2-butenoic acid] in this work. An IC50 of at least 3 µM was found for CC(C)C1Oc2c(ccc3ccccc23)N(CCC(=O)O)C1=O (stereo not drawn) [Example 99, 3-(2-isopropyl-3-oxo-2,3-dihydronaphtho[1,2-b][1,4]oxazin-4-yl)propionic acid] in this work. An IC50 of 0.3 to 3 µM was found for Cc1ccc2c(c1)OC(C(C)C)C(=O)N2CCC(=O)O (stereo not drawn) [Example 43, 3-(2-isopropyl-7-methyl-3-oxo-2,3-dihydrobenzo[1,4]oxazin-4-yl)propionic acid] in this work. An IC50 of 0.3 to 3 µM was found for CC(C)C1Oc2cc(Cl)ccc2N(CCC(=O)O)C1=O (stereo not drawn) [Example 62, 3-(7-chloro-2-isopropyl-3-oxo-2,3-dihydrobenzo[1,4]oxazin-4-yl)propionic acid] in this work. An IC50 of under 0.3 µM was found for CCC1Oc2c(C)cc(C)cc2N(CCC(=O)O)C1=O (stereo not drawn) [Example 87, 3-(2-ethyl-6,8-dimethyl-3-oxo-2,3-dihydrobenzo[1,4]oxazin-4-yl)propionic acid] in this work. An IC50 of at least 3 µM was found for O=C(O)CCCC(=O)N1CCOc2ccccc21 [Example 24, 5-(2,3-dihydrobenzo[1,4]oxazin-4-yl)-5-oxovaleric acid] in this work. An IC50 of at least 3 µM was found for O=C(O)CCC(=O)N1CCOc2ccccc21 [Example 23, 4-(2,3-dihydrobenzo[1,4]oxazin-4-yl)-4-oxobutyric acid] in this work. An IC50 of at least 3 µM was found for O=C(O)CN1C(=S)CSc2ccccc21 [Example 12, (3-thioxo-2,3-dihydrobenzo[1,4]thiazin-4-yl)acetic acid] in this work. An IC50 of at least 3 µM was found for COC(=O)CN1C(=O)CSc2ccccc21 [Example 2, (3-oxo-2,3-dihydrobenzo[1,4]thiazin-4-yl)acetic acid methyl ester] in this work. An IC50 of under 0.3 µM was found for Cc1cc(Cl)c2c(c1)N(CCC(=O)O)C(=O)C(C(C)C)O2 (stereo not drawn) [Example 98, 3-(8-chloro-2-isopropyl-6-methyl-3-oxo-2,3-dihydrobenzo[1,4]oxazin-4-yl)propionic acid] in this work. An IC50 of under 0.3 µM was found for CC(C)C1Oc2c(Cl)cccc2N(CCC(=O)O)C1=O (stereo not drawn) [Example 100, 3-(8-chloro-2-isopropyl-3-oxo-2,3-dihydrobenzo[1,4]oxazin-4-yl)propionic acid] in this work. An IC50 of at least 3 µM was found for CC(C)C1Oc2ccccc2N(CCC(=O)O)C1=O (stereo not drawn) [Example 32, 3-(2-isopropyl-3-oxo-2,3-dihydrobenzo[1,4]oxazin-4-yl)propionic acid] in this work. An IC50 of at least 3 µM was found for O=C(O)/C=C/C(=O)N1CC(c2ccccc2)Oc2cc(Cl)ccc21 (stereo not drawn) [Example 70, (E)-4-(7-chloro-2-phenyl-2,3-dihydrobenzo[1,4]oxazin-4-yl)-4-oxo-2-butenoic acid] in this work. An IC50 of at least 3 µM was found for O=C(O)CCCCC(=O)N1CCOc2ccccc21 [Example 27, 6-(2,3-dihydrobenzo[1,4]oxazin-4-yl)-6-oxohexanoic acid] in this work. An IC50 of at least 3 µM was found for CC(C)c1cccc2c1OC(C(C)C)CN2C(=O)C(=O)O (stereo not drawn) [Example 29, (2,8-diisopropyl-2,3-dihydrobenzo[1,4]oxazin-4-yl)oxoacetic acid] in this work. An IC50 of 0.3 to 3 µM was found for O=C(O)CCN1C(=O)C(c2ccccc2)Oc2c(Br)cccc21 (stereo not drawn) [Example 66, 3-(8-bromo-3-oxo-2-phenyl-2,3-dihydrobenzo[1,4]oxazin-4-yl)propionic acid] in this work. An IC50 of 0.3 to 3 µM was found for CC(C)c1cccc2c1O[C@H](C(C)C)C(=S)N2CC(=O)O [Example 8, ((R)-2,8-diisopropyl-3-thioxo-2,3-dihydrobenzo[1,4]oxazin-4-yl)acetic acid] in this work. An IC50 of at least 3 µM was found for O=C(O)/C=C/C(=O)N1CC(c2ccccc2)Oc2ccc(Cl)cc21 (stereo not drawn) [Example 71, (E)-4-(6-chloro-2-phenyl-2,3-dihydrobenzo[1,4]oxazin-4-yl)-4-oxo-2-butenoic acid] in this work. An IC50 of at least 3 µM was found for CC(C)c1cccc2c1OC(C(C)C)C(=O)N2CCCC(=O)O (stereo not drawn) [Example 18, 4-(2,8-diisopropyl-3-oxo-2,3-dihydrobenzo[1,4]oxazin-4-yl)butyric acid] in this work. An IC50 of at least 3 µM was found for CC(C)c1cccc2c1OCC(=S)N2CC(=O)O [Example 15, (8-isopropyl-3-thioxo-2,3-dihydrobenzo[1,4]oxazin-4-yl)acetic acid] in this work. An IC50 of at least 3 µM was found for Cc1cc(C)c2c(c1)N(CCC(=O)O)C(=O)CO2 [Example 82, 3-(6,8-dimethyl-3-oxo-2,3-dihydrobenzo[1,4]oxazin-4-yl)propionic acid] in this work. An IC50 of at least 3 µM was found for CC(C)C1CN(C(=O)/C=C/C(=O)O)c2cccc(Br)c2O1 (stereo not drawn) [Example 78, (E)-4-(8-bromo-2-isopropyl-2,3-dihydrobenzo[1,4]oxazin-4-yl)-4-oxo-2-butenoic acid] in this work.
